From paper PMC10287566, “Signaling-specific inhibition of the CB1 receptor for cannabis use disorder: phase 1 and phase 2a randomized trials” (Nature Medicine, 2023)
Where two headings read alike, the source gives them in different places.

How the values were obtained:
healthy volunteers = experiment: Phase 1 multiple-ascending-dose (MAD) study, safety
Protocol: Four single oral dose levels (0.2, 0.6, 2 and 6 mg) were given in the morning on day 1 in the SAD study, and three oral doses (0.6, 2 and 6 mg) were given in the morning of day 1 to day 7 in the MAD study, to independent dose cohorts. […] Each dose cohort comprised eight volunteers (six (5/1) active and two (1/1) placebo per dose level).
In the MAD study, each randomized participant received a single oral dose per day on days 1 through 7. […] As an approximation, plasma PK concentrations and parameters were presented for all participants as if occurring on day 7.
Participants were admitted to the research clinic at midday before dosing (day −1). In the SAD study, they remained in-house until day 8 for PK and PD samples and safety assessments. In the MAD study, participants remained in-house until day 14 and returned to the research facility on an outpatient basis to have PK and safety assessments at 216 h and 264 h (day 16 and day 18) after their last dose (day 7). Safety monitoring (physical examinations, vital sign measurements, 12-lead ECGs, clinical safety laboratory tests and AE monitoring) were performed throughout the studies. Psychometrics tests (Bond & Lader VAS, Addiction Research Center Inventory (49-item short form) (ARCI-49) and Profile of Mood States 65 self-report items (POMS-65)) and the Columbia-Suicide Severity Rating Scale (C-SSRS) test were performed at baseline, before dose and at 4 h and 24 h after dose on day 1 and day 7 (MAD study, only) and C-SSRS only at 24 h.
All participants who had AEs, whether considered associated with the use of the investigational product or not, were monitored for as long as needed to determine resolution.

[1] = MAD study, plasma pharmacokinetics; format: in vivo, human; settings: for Cmax / Tmax / half-life: human, plasma, oral; for Cmax: read-out: Cmax, mean (±SD); for Tmax: read-out: tmax, median (range)
Protocol: Samples were collected at the same timepoints on day 1 and day 7: before dose and 0.5, 1, 1.5, 2, 3, 4, 6, 8 and 12 h after dose. Additional samples were collected on day 2 to day 6 before dose (that is, 24 h from the previous dose) and on days […] (that is, 24, 48, 72, 96, 120, 144, 168, 216 and 264 h after the last dose at day 7).
For both SAD and MAD studies, the PK parameters were calculated using standard non-compartmental methods for those with sufficient plasma concentration data.

squirrel monkeys = experiment: i.v. self-administration of THC in squirrel monkeys; format: in vivo, Saimiri sciureus
Text: Two experimental models were used: (1) THC i.v. self-administration and (2) THC-induced reinstatement of THC seeking. These two approaches were used to model the maintenance of daily cannabis use and cannabis seeking after a period of abstinence.
For the self-administration experiments, four male squirrel monkeys (800–1,100 g; the estimated age was 17 years for three monkeys and 14 years for the fourth one) were used because this species reliably self-administers i.v. THC. Monkeys were trained to lever press for an i.v. injection of THC (4 µg kg^–1 per injection) under a 10-response fixed ratio schedule of drug injection (FR10; each 10th response on the lever produced an injection of THC, followed by a 60-s timeout). Number of lever presses and number of injections per session were recorded.

[2] = target: T1, hCB1 point mutant p.E1.49G (Homo sapiens, UniProt P21554, E133G); experiment: THC-induced decrease in cellular respiration, HEK293 cells with mutant hCB1; format: cell-based; settings: HEK293, hCB1 p.E1.49G, THC 1 µM
T1 construct: expressed in transfected cells; host or cells: HEK293
T1 sequence (P21554 whole entry E133G): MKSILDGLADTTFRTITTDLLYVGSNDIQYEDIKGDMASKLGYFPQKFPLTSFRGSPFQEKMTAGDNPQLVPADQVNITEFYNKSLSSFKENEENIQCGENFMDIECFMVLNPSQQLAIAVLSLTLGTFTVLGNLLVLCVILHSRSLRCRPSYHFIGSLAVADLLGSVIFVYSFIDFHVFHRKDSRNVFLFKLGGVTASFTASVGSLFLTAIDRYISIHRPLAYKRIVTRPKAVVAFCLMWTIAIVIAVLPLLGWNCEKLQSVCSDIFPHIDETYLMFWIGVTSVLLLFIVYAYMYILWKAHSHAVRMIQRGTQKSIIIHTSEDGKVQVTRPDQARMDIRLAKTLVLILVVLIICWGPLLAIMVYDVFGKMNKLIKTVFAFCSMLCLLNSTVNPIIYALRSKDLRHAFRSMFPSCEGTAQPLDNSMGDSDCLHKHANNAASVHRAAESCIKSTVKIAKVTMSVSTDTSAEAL
Protocol: After 15 min of incubation, THC (1 µM, dissolved in ethanol 0.0034%) or vehicle was added in the culture dishes for 30 min.
Cellular respiration was measured in a calibrated oxygraph (Oxygraph-2k, Oroboros Instruments) equipped with a Clark electrode and DatLab software. Oxygen consumption (OC) rate was used to measure cellular respiration.

mice = experiment: THC-induced catalepsy (bar test); format: in vivo
rats [3] = experiment: THC-induced dopamine release in nucleus accumbens (microdialysis); format: in vivo; settings: 15 µg kg^−1 oral
rats [4] = experiment: Irwin test and body temperature (GLP); format: in vivo; settings: rats, GLP
Protocol: The study involved four groups of six male Wistar rats weighing between 154.0 g and 185.9 g. […] On study day, animals were first scored by the Irwin standardized observation battery, and body temperature was measured. […] Irwin scores and measurement of body temperature were done again at 1, 3, 6, 8 and 24 h after dose.

[5] = 0.6 mg/day, MAD Day 1, 0.6 mg/day
[6] = 0.6 mg/day, MAD Day 7, 0.6 mg/day

Structure (SMILES): COc1ccc(CO[C@H]2CC[C@@]3(C)C(=CC[C@H]4[C@@H]5CC[C@H](C(C)=O)[C@@]5(C)CC[C@@H]43)C2)cc1 [AEF0117, 3β-(4-methoxybenzyloxy)pregn-5-en-20-one]
- Number of TEAEs (healthy volunteers; 0.6 mg/d 7 d): 7 E
- Number of participants with a TEAE leading to discontinuation (healthy volunteers; 0.6 mg/d 7 d): 1 (16.7) n (%)
- Number of participants with an SAE (healthy volunteers; 0.6 mg/d 7 d): 0 n (%)
- Number of participants with at least one TEAE (healthy volunteers; 0.6 mg/d 7 d): 3 (50.0) n (%)
- Participants with TEAE: Mild (healthy volunteers; 0.6 mg/d 7 d): 2 (33.3) n (%)
- Participants with TEAE: Moderate (healthy volunteers; 0.6 mg/d 7 d): 1 (16.7) n (%)
- Participants with TEAE: Not related (healthy volunteers; 0.6 mg/d 7 d): 1 (16.7) n (%)
- Participants with TEAE: Related (healthy volunteers; 0.6 mg/d 7 d): 3 (50.0) n (%)
- Participants with TEAE: Severe (healthy volunteers; 0.6 mg/d 7 d): 0 n (%)
- TEAEs by SOC: Eye disorder (healthy volunteers; 0.6 mg/d 7 d): 0 n (%)
- TEAEs by SOC: Gastrointestinal disorders (healthy volunteers; 0.6 mg/d 7 d): 0 n (%)
- TEAEs by SOC: General disorders and administration site conditions (healthy volunteers; 0.6 mg/d 7 d): 1 (16.7) n (%)
- TEAEs by SOC: Investigations (healthy volunteers; 0.6 mg/d 7 d): 0 n (%)
- TEAEs by SOC: Metabolism and nutrition disorders (healthy volunteers; 0.6 mg/d 7 d): 1 (16.7) n (%)
- TEAEs by SOC: Nervous system disorders (healthy volunteers; 0.6 mg/d 7 d): 2 (33.3) n (%)
- TEAEs by SOC: Skin and subcutaneous tissue disorders (healthy volunteers; 0.6 mg/d 7 d): 1 (16.7) n (%)
- Number of TEAEs (healthy volunteers; 2 mg/d 7 d): 3 E
- Number of participants with a TEAE leading to discontinuation (healthy volunteers; 2 mg/d 7 d): 0 n (%)
- Number of participants with an SAE (healthy volunteers; 2 mg/d 7 d): 0 n (%)
- Number of participants with at least one TEAE (healthy volunteers; 2 mg/d 7 d): 2 (33.3) n (%)
- Participants with TEAE: Mild (healthy volunteers; 2 mg/d 7 d): 2 (33.3) n (%)
- Participants with TEAE: Moderate (healthy volunteers; 2 mg/d 7 d): 0 n (%)
- Participants with TEAE: Not related (healthy volunteers; 2 mg/d 7 d): 1 (16.7) n (%)
- Participants with TEAE: Severe (healthy volunteers; 2 mg/d 7 d): 0 n (%)
- TEAEs by SOC: Eye disorder (healthy volunteers; 2 mg/d 7 d): 0 n (%)
- TEAEs by SOC: Gastrointestinal disorders (healthy volunteers; 2 mg/d 7 d): 1 (16.7) n (%)
- TEAEs by SOC: General disorders and administration site conditions (healthy volunteers; 2 mg/d 7 d): 0 n (%)
- TEAEs by SOC: Investigations (healthy volunteers; 2 mg/d 7 d): 1 (16.7) n (%)
- TEAEs by SOC: Metabolism and nutrition disorders (healthy volunteers; 2 mg/d 7 d): 0 n (%)
- TEAEs by SOC: Nervous system disorders (healthy volunteers; 2 mg/d 7 d): 0 n (%)
- TEAEs by SOC: Skin and subcutaneous tissue disorders (healthy volunteers; 2 mg/d 7 d): 0 n (%)
- Number of TEAEs (healthy volunteers; 6 mg/d 7 d): 6 E
- Number of participants with a TEAE leading to discontinuation (healthy volunteers; 6 mg/d 7 d): 0 n (%)
- Number of participants with an SAE (healthy volunteers; 6 mg/d 7 d): 0 n (%)
- Number of participants with at least one TEAE (healthy volunteers; 6 mg/d 7 d): 2 (33.3) n (%)
- Participants with TEAE: Mild (healthy volunteers; 6 mg/d 7 d): 2 (33.3) n (%)
- Participants with TEAE: Moderate (healthy volunteers; 6 mg/d 7 d): 1 (16.7) n (%)
- Participants with TEAE: Not related (healthy volunteers; 6 mg/d 7 d): 2 (33.3) n (%)
- Participants with TEAE: Related (healthy volunteers; 6 mg/d 7 d): 2 (33.3) n (%)
- Participants with TEAE: Severe (healthy volunteers; 6 mg/d 7 d): 0 n (%)
- TEAEs by SOC: Eye disorder (healthy volunteers; 6 mg/d 7 d): 1 (16.7) n (%)
- TEAEs by SOC: Gastrointestinal disorders (healthy volunteers; 6 mg/d 7 d): 0 n (%)
- TEAEs by SOC: General disorders and administration site conditions (healthy volunteers; 6 mg/d 7 d): 1 (16.7) n (%)
- TEAEs by SOC: Investigations (healthy volunteers; 6 mg/d 7 d): 0 n (%)
- TEAEs by SOC: Metabolism and nutrition disorders (healthy volunteers; 6 mg/d 7 d): 0 n (%)
- TEAEs by SOC: Nervous system disorders (healthy volunteers; 6 mg/d 7 d): 2 (33.3) n (%)
- TEAEs by SOC: Skin and subcutaneous tissue disorders (healthy volunteers; 6 mg/d 7 d): 1 (16.7) n (%)
- concentration at 264 h as share of Cmax at Day 7 ([1]; MAD, all doses): 4%
- Cmax [1, 5]: 4.6 ± 1.4 ng/mL
- Tmax [1, 5]: 3 h
- half-life ([1]; 0.6 mg/day, MAD Day 7, 0.6 mg/day, 0-264 h, read-out: t½, min-max): 153 to 252 h
- Cmax [1, 6]: 3.3 ± 0.3 ng/mL
- Tmax [1, 6]: 3 h
- Cmax ([1]; 2 mg/day, MAD Day 1, 2 mg/day): 11.6 ± 3.7 ng/mL
- Tmax ([1]; 2 mg/day, MAD Day 1, 2 mg/day): 3 h
- half-life ([1]; 2 mg/day, MAD Day 7, 2 mg/day, 0-264 h, read-out: t½, min-max): 152 to 240 h
- Cmax ([1]; 2 mg/day, MAD Day 7, 2 mg/day): 14.5 ± 4.9 ng/mL
- Tmax ([1]; 2 mg/day, MAD Day 7, 2 mg/day): 3 h
- Cmax ([1]; 6 mg/day, MAD Day 1, 6 mg/day): 35.9 ± 13.5 ng/mL
- Tmax ([1]; 6 mg/day, MAD Day 1, 6 mg/day): 3.5 h
- half-life ([1]; 6 mg/day, MAD Day 7, 6 mg/day, 0-264 h, read-out: t½, min-max): 160 to 258 h
- Cmax ([1]; 6 mg/day, MAD Day 7, 6 mg/day): 37.1 ± 7.3 ng/mL
- Tmax ([1]; 6 mg/day, MAD Day 7, 6 mg/day): 2.5 h
- half-life ([1]; humans, MAD study, range between participants, read-out: terminal half-life): 152 to 259 h
- i.v. self-administration of THC (squirrel monkeys; 15 µg kg^−1 oral): significantly reduced
- % Inhibition (squirrel monkeys; Self-administration of THC): 80%
- ID50 (squirrel monkeys; Self-administration of THC): 0.005 mg/kg
- ID100 (squirrel monkeys; Self-administration of THC): 0.015 mg/kg
- effect on cellular respiration with mutant hCB1 [2]: loss of effect
- THC-induced catalepsy (mice): inhibited
- % Inhibition (mice; Catalepsy): 50%
- ID50 (mice; Catalepsy): 0.005 mg/kg
- ID100 (mice; Catalepsy): 0.05 mg/kg
- THC-induced increase in Nac extracellular dopamine (rats [3]): inhibited
- adverse effects on behavior (Irwin test) and body temperature (rats [4]): did not show any adverse effects
